For the data set, the system named is sentinel lymph node (SLN). The experiment in a line: Sentinel lymph node detection after submucosal injection in stomach and small intestine of laparotomized pig, observed by color change. The data set is classed as in vivo. The settings on record: 0.5 mL submucosal. On the procedure:
A pig was laparotomized under general anesthesia and the mixture of the sodium hyaluronate and the patent blue prepared in (1) above and patent blue alone as a control were each injected at two locations which were in the tissues (submucosal) of the stomach and small intestine at 0.5 mL each, and migration from the lymphatic vessels to the lymph nodes was monitored for 3 hours after injection based on the changes in color under laparotomy. […] In addition, the colored lymph nodes were investigated histologically after 3 hours and after 24 hours. A pig was laparotomized under general anesthesia and the mixture of the sodium hyaluronate and the ferumoxides injection solution prepared in (1) above and the ferumoxides injection solution alone as a control were each injected at two locations which were in the tissues (submucosal) of the stomach and small intestine at 0.5 mL each, and migration from the lymphatic vessels to the lymph nodes was monitored for 3 hours after injection based on the changes in color under laparotomy. […] In addition, the colored lymph nodes were investigated histologically after 3 hours and after 24 hours. […]

As for `CCN(CC)c1ccc(C(=C2C=CC(=[N+](CC)CC)C=C2)c2cc(O)c(S(=O)(=O)O)cc2S(=O)(=O)O)cc1` [patent blue], the “time to almost complete disappearance from the associated lymphatic system” value (after injection) is at most 2 h. For the same compound, the “time until staining of the lymphatic system / SLN after injection” value (stomach and small intestine wall) is given as “several minutes”.

The values are drawn from patent publication US20070232904A1, “Application of Hyaluronic Acid to Sentinel Lymph Node Identification” (OAKLEY, INC., priority 2004, published 2007).
